{"source": "patent US20260325538A1", "about": "“THERAPY” (priority 2023, published 2026)", "key": {"MBL-producers": {"test_system": "MBL-producers", "details": "in combination with cefepime; cited from earlier work"}, "MBL class IMP": {"test_system": "MBL class IMP", "details": "in combination with cefepime; cited from earlier work"}, "[1]": {"test_system": "Klebsiella pneumoniae Kpn St147 (NDM-1 and KPC-2)", "test": "MIC determination of cefepime with zinc chelator and avibactam (checkerboard, broth microdilution)", "format": "cell-based", "details": "with FEP and zinc chelator", "protocol": "(§1) Antimicrobial susceptibility testing (AST) by broth microdilution was performed according to The European Committee on Antimicrobial Susceptibility Testing. Reading guide for broth microdilution. Version 4.0, 2022 (see: http://www.eucast.org).\n(§2) Checkerboard 96-well plates (Corning 3788) were made by conducting serial two-fold dilutions of cefepime in cation-adjusted Mueller Hinton II broth (caMHB; Thermo Scientific, T3462), in columns across the microtiter plate (64-0.03 μg/ml). Additionally, avibactam was added to rows 3 to 8 in concentrations of 64, 16, 8, 4, 1 and 0.25 μg/ml, respectively. The zinc chelator was added to the wells of the plate, where applicable. Three plates were made per experiment, one without the zinc chelator (plate 1), one with 16 μg/ml of the zinc chelator (plate 2) and one with 32 μg/ml of the zinc chelator (plate 3). The first row in all plates was used as a positive control for cefepime only, and the second row included the zinc chelator in addition to cefepime (no avibactam added to rows 1 or 2). The zinc chelator was added at the indicated concentration, to rows 3-8 of plates 2 and 3.\n(§3) The effect of the combination of zinc chelator/FEP/avibactam was tested on a clinically isolated Klebsiella pneumoniae Kpn St147 actively constitutionally expressing the two resistance mechanisms NDM-1 and KPC-2 simultaneously. As a negative control, bacteria+FEP was tested alone. As a positive control, bacteria+FEP+zinc chelator was used. In Tables 1 and 2, concentrations (μg/ml) of FEP are given in the top row left to right and avibactam concentrations (μg/ml) are given top to bottom in column 1.\n(§4) The fractional inhibitory concentration (FIC) is defined as the concentration that kills when used in combination with another agent divided by the concentration that has the same effect when used alone. The FIC index (FICI) for the combination of two agents is the sum of their individual FIC values. […] The European Committee for Antimicrobial Susceptibility Testing (EUCAST) of the European Society of Clinical Microbiology and Infectious Diseases (ESCMID) 2000 adopts the following definitions to determine the susceptibility of bacteria to an antimicrobial agent (see EUCAST Definitive Document E. Def 1.2: Terminology relating to methods for the determination of susceptibility of bacteria to antimicrobial agents. Clin. Microbiol. Infect. 2000; 6(9): 503-508): • FICI value≤0.5; synergy • 0.5<FICI value≤1; additive effect • 1<FICI value≤2; indifferent effect • FICI≥2; antagonistic effect\nTo test for synergy, all data were subjected to the following formula in which A=zinc chelator; B=cefepime; and C=avibactam:\n(§5) ΣFICI=MICA(combination)/MICA (alone)+MICB(combination)/MICB (alone)+MICC(combination)/MICC (alone)"}, "[2]": {"test_system": "Klebsiella pneumoniae Kpn St147 (NDM-1 and KPC-2)", "test": "MIC determination of ceftazidime with zinc chelator and avibactam (checkerboard, broth microdilution)", "format": "cell-based", "details": "with CAZ and zinc chelator", "source_text": "as §4, §1\nas §2, with “CAZ” for “cefepime”, “Three plates were made per experiment, one without the zinc chelator (plate 1), one with 16 μg/ml of the zinc chelator (plate 2) and one with 32 μg/ml of the zinc chelator (plate 3).” left out, “concentration” for “concentration,”\nas §3, with “zinc chelator/CAZ/avibactam” for “zinc chelator/FEP/avibactam”, “control, bacteria+CAZ” for “control, bacteria+FEP”, “control, bacteria+CAZ+zinc” for “control, bacteria+FEP+zinc”, “Tables 3” for “Tables 1”, “and 4,” for “and 2,”, “of CAZ” for “of FEP”\nas §5"}, "[3]": {"test_system": "gram-negative bacteria with MBL, for example Klebsiella pneumoniae, E. coli and Pseudomonas aeruginosa", "details": "meropenem used alone; cited from earlier work"}, "NDM": {"test_system": "NDM", "details": "cited from earlier work"}}, "data": [{"compound": "NCCN[C@H]1CC[C@H](CC(=O)N[C@H]2Cc3cccc(C(=O)O)c3OB2O)CC1", "note": "[taniborbactam]", "values": [{"measurement": "activity against MBL-producers", "setting": "MBL-producers", "value": "potent activity"}, {"measurement": "effect against MBL class IMP", "setting": "MBL class IMP", "value": "no effect"}]}, {"compound": "NC(=O)[C@@H]1CC[C@@H]2CN1C(=O)N2OS(=O)(=O)O", "note": "[Avibactam, avibactam]", "values": [{"measurement": "FICI Avibactam", "setting": "[1]; avibactam 0.25 μg/mL", "value": 0.0001}, {"measurement": "FICI Avibactam", "setting": "[1]; avibactam 1 μg/mL", "value": 0.0005}, {"measurement": "FICI Avibactam", "setting": "[1]; avibactam 4 μg/mL", "value": 0.0020}, {"measurement": "FICI Avibactam", "setting": "[1]; avibactam 8 μg/mL", "value": 0.0039}, {"measurement": "FICI Avibactam", "setting": "[1]; avibactam 16 μg/mL", "value": 0.0078}, {"measurement": "FICI Avibactam", "setting": "[2]; avibactam 0.25 μg/mL", "value": 0.0001}, {"measurement": "FICI Avibactam", "setting": "[2]; avibactam 1 μg/mL", "value": 0.0005}, {"measurement": "FICI Avibactam", "setting": "[2]; avibactam 4 μg/mL", "value": 0.0020}, {"measurement": "FICI Avibactam", "setting": "[2]; avibactam 8 μg/mL", "value": 0.0039}, {"measurement": "FICI Avibactam", "setting": "[2]; avibactam 16 μg/mL", "value": 0.0078}]}, {"compound": "C[C@@H](O)[C@H]1C(=O)N2C(C(=O)O)=C(S[C@@H]3CN[C@H](C(=O)N(C)C)C3)[C@H](C)[C@H]12", "note": "[meropenem]", "values": [{"measurement": "sensitivity of gram-negative bacteria with MBL", "setting": "[3]", "value": "resistant to the antibiotic"}]}, {"compound": "N[C@@H](CN[C@@H](CN[C@@H](CC(=O)O)C(=O)O)C(=O)O)C(=O)O", "note": "[aspergillomarasmine A]", "values": [{"measurement": "in vivo activity", "setting": "NDM; mouse models", "value": "shown in vivo activity in mouse models"}, {"measurement": "doses required to reverse carbapenem resistance", "setting": "NDM; mouse, in vivo", "value": "relatively high doses"}]}]}
